Test results: ChEMBL document CHEMBL1201862, “PubChem BioAssay data set” (2004)
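Grown in 96-well plates, cells were treated for 48 hours with each compound at five concentrations. Insufficient inhibition: endpoint recorded as highest concentration tested. Abbreviation: GI50, concentration required for 50% inhibition of growth.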 Activity calls are given as the source filed them. No stated cut-off is given here; in the data, active = GI50 up to about 1.1 µM and inactive = higher.

How the values were obtained:
Test in all cases: NCI anticancer screen, dose series, 48 h
[1] = tested on: DMS-114
[2] = tested on: HOP-92
[3] = tested on: 786-0
[4] = tested on: SNB-78
[5] = tested on: DMS-273
[6] = tested on: IGROV-1
[7] = tested on: HOP-62
[8] = tested on: HCT-116
[9] = tested on: K562
[10] = tested on: SN12C
[11] = tested on: SK-OV-3
[12] = tested on: A498
[13] = tested on: SF-268
[14] = tested on: OVCAR-3
[15] = tested on: OVCAR-4
[16] = tested on: UO-31
[17] = tested on: COLO 205
[18] = tested on: SK-MEL-2
[19] = tested on: KM-20L2
[20] = tested on: SF-295
[21] = tested on: M14
[22] = tested on: SF-539
[23] = tested on: LXFL 529
[24] = tested on: EKVX
[25] = tested on: DLD-1
[26] = tested on: NCI-H23
[27] = tested on: M19-MEL
[28] = tested on: KM12
[29] = tested on: Malme-3M
[30] = tested on: CAKI-1
[31] = tested on: ACHN
[32] = tested on: SNB-75
[33] = tested on: XF498
[34] = tested on: OVCAR-5
[35] = tested on: MOLT-4
[36] = tested on: NCI-H522
[37] = tested on: CCRF-CEM
[38] = tested on: NCI-H226
[39] = tested on: UACC-62
[40] = tested on: SK-MEL-28
[41] = tested on: HCT-15
[42] = tested on: RPMI-8226
[43] = tested on: SNB-19
[44] = tested on: SW-620
[45] = tested on: A549
[46] = tested on: NCI-H460
[47] = tested on: TK-10
[48] = tested on: UACC-257
[49] = tested on: HCC 2998
[50] = tested on: HT-29
[51] = tested on: HL-60
[52] = tested on: OVCAR-8
[53] = tested on: HOP-18
[54] = tested on: SK-MEL-5
[55] = tested on: LOX IMVI
[56] = tested on: U-251
[57] = tested on: SR
[58] = tested on: RXF 631
[59] = tested on: RXF 393

Q: `NS(=O)(=O)c1ccc(NC(=O)c2cccc3c(=O)c4ccccc4[nH]c23)cc1` was tested. Which GI50 [1] did it give?
A: 74.8 µM (inactive)

Q: What about the GI50 [2] of the same molecule?
A: > 100 µM (inactive)

Q: And the GI50 [3]?
A: > 100 µM (inactive)

Q: And the GI50 [4]?
A: 49.3 µM (inactive)

Q: And the GI50 [5]?
A: 70.1 µM (inactive)

Q: And the GI50 [6]?
A: 78.5 µM (inactive)

Q: And the GI50 [7]?
A: 39.8 µM (inactive)

Q: And the GI50 [8]?
A: 32.4 µM (inactive)

Q: And the GI50 [9]?
A: 62.2 µM (inactive)

Q: And the GI50 [10]?
A: 94.4 µM (inactive)

Q: And the GI50 [11]?
A: 19.9 µM (inactive)

Q: What about the GI50 [12] of the same molecule?
A: 51.3 µM (inactive)

Q: What about the GI50 [13] of the same molecule?
A: 30.6 µM (inactive)

Q: And the GI50 [14]?
A: > 100 µM (inactive)

Q: What about the GI50 [15] of the same molecule?
A: 29.6 µM (inactive)

Q: What about the GI50 [16] of the same molecule?
A: 18.6 µM (inactive)

Q: What about the GI50 [17] of the same molecule?
A: 37.2 µM (inactive)

Q: And the GI50 [18]?
A: 41 µM (inactive)

Q: And the GI50 [19]?
A: 38.6 µM (inactive)

Q: What about the GI50 [20] of the same molecule?
A: > 100 µM (inactive)

Q: And the GI50 [21]?
A: > 100 µM (inactive)

Q: And the GI50 [22]?
A: 22.7 µM (inactive)

Q: And the GI50 [23]?
A: 30.6 µM (inactive)

Q: What about the GI50 [24] of the same molecule?
A: > 100 µM (inactive)

Q: What about the GI50 [25] of the same molecule?
A: > 100 µM (inactive)

Q: What about the GI50 [26] of the same molecule?
A: 67.3 µM (inactive)

Q: And the GI50 [27]?
A: 73.3 µM (inactive)

Q: What about the GI50 [28] of the same molecule?
A: 22.2 µM (inactive)

Q: And the GI50 [29]?
A: 24.7 µM (inactive)

Q: And the GI50 [30]?
A: > 100 µM (inactive)

Q: What about the GI50 [31] of the same molecule?
A: > 100 µM (inactive)

Q: What about the GI50 [32] of the same molecule?
A: 15.3 µM (inactive)

Q: What about the GI50 [33] of the same molecule?
A: 11.5 µM (inactive)

Q: What about the GI50 [34] of the same molecule?
A: > 100 µM (inactive)

Q: What about the GI50 [35] of the same molecule?
A: 18.2 µM (inactive)

Q: What about the GI50 [36] of the same molecule?
A: 3.8 µM (inactive)

Q: What about the GI50 [37] of the same molecule?
A: 5.85 µM (inactive)

Q: And the GI50 [38]?
A: 23.4 µM (inactive)

Q: What about the GI50 [39] of the same molecule?
A: 41.8 µM (inactive)

Q: What about the GI50 [40] of the same molecule?
A: 54.1 µM (inactive)

Q: And the GI50 [41]?
A: > 100 µM

Q: And the GI50 [42]?
A: 28.4 µM (inactive)

Q: And the GI50 [43]?
A: 76.4 µM (inactive)

Q: And the GI50 [44]?
A: 78.9 µM (inactive)

Q: What about the GI50 [45] of the same molecule?
A: > 100 µM (inactive)

Q: And the GI50 [46]?
A: > 100 µM (inactive)

Q: And the GI50 [47]?
A: 89.1 µM (inactive)

Q: And the GI50 [48]?
A: > 100 µM (inactive)

Q: What about the GI50 [49] of the same molecule?
A: > 100 µM (inactive)

Q: What about the GI50 [50] of the same molecule?
A: > 100 µM (inactive)

Q: What about the GI50 [51] of the same molecule?
A: 31.8 µM (inactive)

Q: What about the GI50 [52] of the same molecule?
A: > 100 µM (inactive)

Q: What about the GI50 [53] of the same molecule?
A: > 100 µM (inactive)

Q: What about the GI50 [54] of the same molecule?
A: 65.5 µM (inactive)

Q: What about the GI50 [55] of the same molecule?
A: 20.7 µM (inactive)

Q: What about the GI50 [56] of the same molecule?
A: 48.4 µM (inactive)

Q: What about the GI50 [57] of the same molecule?
A: 22 µM (inactive)

Q: Which GI50 [1] does the source give for `CCOC(=O)C(=C=C=C(c1ccccc1)c1ccccc1)C(=O)OCC` here?
A: 18.5 µM (inactive)

Q: What about the GI50 [2] of the same molecule?
A: 15.1 µM (inactive)

Q: And the GI50 [3]?
A: 17.8 µM (inactive)

Q: And the GI50 [4]?
A: 16.9 µM (inactive)

Q: And the GI50 [5]?
A: 20.3 µM (inactive)

Q: And the GI50 [58]?
A: 24 µM (inactive)

Q: And the GI50 [6]?
A: 18.1 µM (inactive)

Q: And the GI50 [7]?
A: 18.9 µM (inactive)

Q: What about the GI50 [8] of the same molecule?
A: 18.5 µM (inactive)

Q: And the GI50 [9]?
A: 11.3 µM (inactive)

Q: And the GI50 [10]?
A: 20.7 µM (inactive)

Q: What about the GI50 [11] of the same molecule?
A: 23.2 µM (inactive)

Q: What about the GI50 [12] of the same molecule?
A: 48.4 µM (inactive)

Q: What about the GI50 [13] of the same molecule?
A: 25.8 µM (inactive)

Q: And the GI50 [14]?
A: 15.5 µM (inactive)

Q: And the GI50 [15]?
A: 18.3 µM (inactive)

Q: And the GI50 [16]?
A: 18.6 µM (inactive)

Q: What about the GI50 [17] of the same molecule?
A: 16.7 µM (inactive)

Q: What about the GI50 [18] of the same molecule?
A: 16.6 µM (inactive)

Q: And the GI50 [19]?
A: 20.9 µM (inactive)

Q: What about the GI50 [20] of the same molecule?
A: 16.3 µM (inactive)

Q: And the GI50 [21]?
A: 20.6 µM (inactive)

Q: What about the GI50 [22] of the same molecule?
A: 18.4 µM (inactive)

Q: And the GI50 [23]?
A: 16.9 µM (inactive)

Q: And the GI50 [24]?
A: 26.7 µM (inactive)

Q: What about the GI50 [25] of the same molecule?
A: 18.5 µM (inactive)

Q: And the GI50 [26]?
A: 38.5 µM (inactive)

Q: And the GI50 [27]?
A: 18.4 µM (inactive)

Q: And the GI50 [59]?
A: 10.7 µM (inactive)

Q: What about the GI50 [28] of the same molecule?
A: 19.6 µM (inactive)

Q: What about the GI50 [29] of the same molecule?
A: 19.8 µM (inactive)

Q: What about the GI50 [31] of the same molecule?
A: 21.4 µM (inactive)

Q: And the GI50 [32]?
A: 3.87 µM (inactive)

Q: And the GI50 [33]?
A: 15.1 µM (inactive)

Q: What about the GI50 [34] of the same molecule?
A: 18.1 µM (inactive)

Q: And the GI50 [35]?
A: 9.08 µM (inactive)

Q: And the GI50 [37]?
A: 3.52 µM (inactive)

Q: And the GI50 [38]?
A: 15.5 µM (inactive)

Q: And the GI50 [39]?
A: 18.5 µM (inactive)

Q: What about the GI50 [40] of the same molecule?
A: 17.4 µM (inactive)

Q: What about the GI50 [41] of the same molecule?
A: 19.6 µM

Q: And the GI50 [42]?
A: 14.1 µM (inactive)

Q: And the GI50 [43]?
A: 21.5 µM (inactive)

Q: What about the GI50 [44] of the same molecule?
A: 21.5 µM (inactive)

Q: What about the GI50 [45] of the same molecule?
A: 25 µM (inactive)

Q: What about the GI50 [46] of the same molecule?
A: 22.8 µM (inactive)

Q: And the GI50 [47]?
A: 16 µM (inactive)

Q: What about the GI50 [48] of the same molecule?
A: 16.8 µM (inactive)

Q: And the GI50 [49]?
A: 25 µM (inactive)

Q: What about the GI50 [50] of the same molecule?
A: 19.4 µM (inactive)

Q: And the GI50 [51]?
A: 15.4 µM (inactive)

Q: What about the GI50 [52] of the same molecule?
A: 21.9 µM (inactive)

Q: And the GI50 [54]?
A: > 10 µM (inactive)

Q: And the GI50 [55]?
A: 17.1 µM (inactive)

Q: What about the GI50 [56] of the same molecule?
A: 17.3 µM (inactive)
